Where a name gives a salt, the structure may show the parent alone.
Assays:
renal hypertensive rats = test: Anti-hypertensive activity in renal hypertensive rats (plethysmographic tail blood pressure); assay type: in vivo, male Wistar rats
Description: Male Wistar rats weighing 180 to 200 g and having a blood pressure of 125 to 145 mmHg were anesthetized with ether and the left abdominal wall of rats was cut and thereby the renal artery was laid bare. The origin part of the aorta was stripped off and to the renal artery was fixed a silver clip which was made by two-folding at interval of 0.2 mm a silver thin board having 2.0 mm in width, 6.0 mm in length and 0.3 mm in thickness, and then the abdominal wall was stitched. At 2 months after the operation, the blood pressure of the rats was increased to 150 or more mmHg. The rats thus treated were used in the test as the renal hypertensive rats.
The blood pressure was measured before the administration of test compounds and at 0.5, 1, 3, 5, 7, 9 and 24 hours after the administration of the test compounds.

[1] = test system: hypothermy induced by reserpine; test: Anti-reserpine activity: antagonism against the hypothermy induced by reserpine; assay type: in vivo, male dd YS-mice; settings: 100 mg/kg orally; for Inhibition (%): reserpine 5 mg/kg i.p. simultaneously, rectal temperature at 4 hours; for Ratio to AMT: inhibition relative to amitriptyline (AMT)
Description: The anti-reserpine activity of the test compounds was studied by the antagonism against the hypothermy induced by reserpine on male dd YS-mice, weighing 18 to 20 g, each group being 5 mice. The test compounds were orally administered in a dose of 100 mg/kg and simultaneously reserpine was intraperitoneally administered in a dose of 5 mg/kg to the mice. The body temperature was measured on the rectal temperature of the mice at 4 hours after the administration of the test compounds by thermister BMG III-130, made by Shibaura Electric Co., Ltd.

[2] = test system: spontaneously hypertensive rats; test: Anti-hypertensive activity in spontaneously hypertensive rats; assay type: in vivo, male Wistar rats
Description: The blood pressure was measured by plethysmographic method, in which the blood pressure was measured indirectly by using a tail of animal without anesthesia. That is, after being warmed at 38°C for 10 minutes, a tail of rat was pressed by cuff and then the pressure was relieved and thereby the blood flow started again to increase the volume of tail. The blood pressure at that time was measured.
Spontaneously hypertensive rats were prepared by using male Wistar rats weighing 300 to 350 g and being 20 or more weeks of age. […] The blood pressure in rats was measured at 0.5, 1, 3, 5, 7, 24 and 30 hours after the administration of the test compounds in the same manner as described in Test 3, (B).

[3] = test system: 1-dopa potentiating activity; test: 1-Dopa potentiating activity (mortality of mice given 1-dopa); assay type: in vivo, dd YS-mice; settings: one hour before 1-dopa 300 mg/kg i.p.
Description: To dd YS-mice, weighing 18 to 20 g (each group being 10 mice) was intraperitoneally administered 300 mg/kg of 1-dopa: 3-(3,4-dihydroxyphenyl)-L-alanine. The mice were entered into a plastic cage having 15 × 15 cm^2 in size and allowed to live gregariously and then the symptom of the mice was observed. The test compounds were orally administered to the mice at one hour before the administration of 1-dopa. The activity of the test compounds was calculated by the mortality.

Compound	Blood pressure Decrease percent (renal hypertensive rats; 100 mg/kg p.o.)	Blood pressure Duration (renal hypertensive rats; 100 mg/kg p.o.)	Blood pressure Peak time (renal hypertensive rats; 100 mg/kg p.o.)	Inhibition (%) [1]	Ratio to AMT [1]	further results
CNC(=N)Cc1noc2ccccc12 [Test compound 5 (Table 3), 1,2-Benzisoxazole-3-(N-methyl)acetamidine hydrochloride]	19.3%	24 h	3 h	–	–	–
Cl.N=C(N)Cc1noc2ccccc12 [Test compound 2 (Table 3), 1,2-Benzisoxazole-3-acetamidine hydrochloride]	34.4%	30 h	1 to 3 h	–	–	–
Cc1cccc2c(CC3=NCCN3)noc12.Cl [Test compound 4 (Table 1), 7-Methyl-3-(2-imidazolin-2-yl)methyl-1,2-benzisoxazole hydrochloride]	–	–	–	51.9%	1.06	–
Cl.NC(Cc1noc2ccc(F)cc12)=NO [Test compound 3 (Table 4), 5-Fluoro-1,2-benzisoxazole-3-acetamidoxime hydrochloride]	–	–	–	–	–	Blood pressure Decrease percent ([2]; 1 mg/kg p.o.): 20%; Blood pressure Duration ([2]; 1 mg/kg p.o.): 24 h; Blood pressure Peak time ([2]; 1 mg/kg p.o.): 7 to 8 h; Blood pressure Decrease percent ([2]; 10 mg/kg p.o.): 22%; Blood pressure Duration ([2]; 10 mg/kg p.o.): 24 h; Blood pressure Peak time ([2]; 10 mg/kg p.o.): 7.0 h
Cl.Oc1ccc2c(CC3=NCCN3)noc2c1 [Test compound 7 (Table 3), 6-Hydroxy-3-(2-imidazolin-2-yl)methyl-1,2-benzisoxazole hydrochloride]	–	–	–	–	–	Blood pressure Decrease percent ([2]; 10 mg/kg p.o.): 14%; Blood pressure Duration ([2]; 10 mg/kg p.o.): 9 h; Blood pressure Peak time ([2]; 10 mg/kg p.o.): 7.0 h
1,2-Benzisoxazole-3-acetamidoxime [Example 1]	–	–	–	66.9%	1.37	Number of dead mice/number of used mice ([3]; dose 20 mg/kg orally): 1/10; Number of dead mice/number of used mice ([3]; dose 50 mg/kg orally): 3/10; Number of dead mice/number of used mice ([3]; dose 100 mg/kg orally): 7/10; Blood pressure Decrease percent ([2]; 10 mg/kg p.o.): 16%; Blood pressure Duration ([2]; 10 mg/kg p.o.): 24 h; Blood pressure Peak time ([2]; 10 mg/kg p.o.): 5.0 h; Blood pressure Decrease percent (renal hypertensive rats; 3 mg/kg p.o.): 18.2%; Blood pressure Duration (renal hypertensive rats; 3 mg/kg p.o.): 24 h; Blood pressure Peak time (renal hypertensive rats; 3 mg/kg p.o.): 7 h; Blood pressure Decrease percent (renal hypertensive rats; 10 mg/kg p.o.): 36.3%; Blood pressure Duration (renal hypertensive rats; 10 mg/kg p.o.): 30 h; Blood pressure Peak time (renal hypertensive rats; 10 mg/kg p.o.): 7 h; Blood pressure Decrease percent (renal hypertensive rats; 30 mg/kg p.o.): 38.8%; Blood pressure Duration (renal hypertensive rats; 30 mg/kg p.o.): 48 h; Blood pressure Peak time (renal hypertensive rats; 30 mg/kg p.o.): 3 h
Cl.NC(CCc1noc2ccccc12)=NO [Test compound 6 (Table 1), 1,2-Benzisoxazole-3-propionamidoxime hydrochloride]	–	–	–	58.1%	1.12	–
CN(C)CCC=C1c2ccccc2CCc2ccccc21 [Amitriptyline, 3-(10,11-Dihydro-5H-dibenzo[a,d]-cyclohepten-5-ylidene)-N,N-dimethylpropylamine, reference compound]	–	–	–	48.9%	–	–
NC(Cc1noc2ccccc12)=NOC(=O)c1ccccc1 [Test compound 3 (Table 1), O-Benzoyl-1,2-benzisoxazole-3-acetamidoxime]	–	–	–	57.1%	1.17	–
Cl.NC(Cc1noc2ccccc12)=NO [Test compound 2 (Table 1), 1,2-Benzisoxazole-3-acetamidoxime hydrochloride]	–	–	–	64.9%	1.33	–
N=C(Cc1noc2ccccc12)N1CCN(c2ccccc2)CC1 [Test compound 4 (Table 3), 1-Phenyl-4-(1,2-benzisoxazole-3-acetimidoyl)piperazine hydrochloride]	10.7%	30 h	3 h	–	–	–
Cl.Oc1ccc2onc(CC3=NCCN3)c2c1 [Test compound 6 (Table 3), 5-Hydroxy-3-(2-imidazolin-2-yl)methyl-1,2-benzisoxazole hydrochloride]	56.5%	30 h	5 h	–	–	–
Cl.Fc1ccc2onc(CC3=NCCN3)c2c1 [Test compound 4 (Table 4), 5-Fluoro-3-(2-imidazolin-2-yl)methyl-1,2-benzisoxazole hydrochloride]	–	–	–	–	–	Blood pressure Decrease percent ([2]; 10 mg/kg p.o.): 28%; Blood pressure Duration ([2]; 10 mg/kg p.o.): 30 h; Blood pressure Peak time ([2]; 10 mg/kg p.o.): 7.0 h
6,7-dimethoxy-1,2-benzisoxazole-3-acetamidoxime hydrochloride [Example 7]	21.0%	72 h	5 h	–	–	–
NC12CC3CC(CC(C3)C1)C2 [Amantadine, 1-aminoadamantane, reference compound]	–	–	–	–	–	Number of dead mice/number of used mice ([3]; dose 100 mg/kg orally): 0/10; Number of dead mice/number of used mice ([3]; dose 200 mg/kg orally): 3/10; Number of dead mice/number of used mice ([3]; dose 300 mg/kg orally): 5/10
COc1ccc2c(CC(N)=NO)noc2c1.Cl [Test compound 5 (Table 1), 6-Methoxy-1,2-benzisoxazole-3-acetamidoxime hydrochloride]	–	–	–	69.2%	1.42	–
Cl.N=C(Cc1noc2ccccc12)NN [Test compound 3 (Table 3), 1,2-Benzisoxazole-3-acetamidrazone hydrochloride]	19.0%	24 h	7 h	–	–	–
